Data published in EPA's ToxValDB 9.5 (doi:10.2903/j.efsa.2017.4976).
Converted amounts (≈) assume the structure as drawn.

Legend:
Tagia sp. = details: chronic/long-term; growth
Rattus norvegicus = details: acute; oral; mortality
Elodea callitrichoides = details: chronic/long-term; duration: 42 days
Colinus virginianus = details: for LD50: acute, oral, mortality
Hypoaspis aculeifer = details: chronic/long-term; mortality
Daphnia magna = details: chronic/long-term; duration: 21 days; reproduction
Oryctolagus sp. = details: reproduction developmental
Apis mellifera = details: acute, mortality

CNC1=C(c2cccc(C(F)(F)F)c2)C(=O)C(c2ccccc2)O1 (stereo not drawn) [Flurtamone]
LC50 (Pimephales promelas; acute, duration: 96 hours, oral, feed, mortality): 6.64 µg/mL (≈ 19.9 µM) | NOEC (Pimephales promelas; chronic/long-term, growth): 0.188 mg/L | NOEC (Tagia sp.): 47.5 mg/kg | LD50 (Rattus norvegicus): > 5000 mg/kg-day | NOEC (Elodea callitrichoides): 0.001 mg/L | LD50 (Colinus virginianus; diet): > 1580 mg/kg-day | LD50 (Colinus virginianus): > 2530 mg/kg | NOEL (Colinus virginianus; reproduction developmental): 7.3 mg/kg-day | NOEC (Hypoaspis aculeifer): 89 mg/kg | NOEC (Daphnia magna): 0.071 mg/L | NOAEL (Oryctolagus sp.): 20 mg/kg-day | LD50 (Apis mellifera; dermal): > 100 µg/piece | LD50 (Apis mellifera; oral, unspecified): > 105 µg/piece
